Measurements from PubChem BioAssay (NCI).
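GI50 marks 50% less growth. TGI: total growth inhibition.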

Experiments:
Assay in all cases: inhibition of tumour cell growth, NCI panel, 384-well format
TK-10 renal = test system: TK-10 renal
BT-549 breast = test system: BT-549 breast
786-0 renal = test system: 786-0 renal
HCT-116 colon = test system: HCT-116 colon
NCI-H23 lung = test system: NCI-H23 lung
UACC-257 melanoma = test system: UACC-257 melanoma
SNB-75 CNS = test system: SNB-75 CNS
DU-145 prostate = test system: DU-145 prostate
MDA-MB-435 melanoma = test system: MDA-MB-435 melanoma
HS 578T breast = test system: HS 578T breast
T-47D breast = test system: T-47D breast
NCI/ADR-RES ovarian = test system: NCI/ADR-RES ovarian
EKVX NSCLC = test system: EKVX NSCLC
COLO 205 colon = test system: COLO 205 colon
SR leukemia = test system: SR leukemia
KM12 colon = test system: KM12 colon
MDA-MB-468 breast = test system: MDA-MB-468 breast
MOLT-4 leukemia = test system: MOLT-4 leukemia
SW-620 colon = test system: SW-620 colon
M14 melanoma = test system: M14 melanoma
UACC-62 melanoma = test system: UACC-62 melanoma
K-562 leukemia = test system: K-562 leukemia
NCI-H522 lung = test system: NCI-H522 lung
CAKI-1 renal = test system: CAKI-1 renal
SF-295 CNS = test system: SF-295 CNS
UO-31 renal = test system: UO-31 renal
U251 glioblastoma = test system: U251 glioblastoma
OVCAR-3 ovarian = test system: OVCAR-3 ovarian
SNB-19 CNS = test system: SNB-19 CNS
PC-3 prostate = test system: PC-3 prostate
HL-60(TB) leukemia = test system: HL-60(TB) leukemia
HCT-15 colon = test system: HCT-15 colon
MALME-3M melanoma = test system: MALME-3M melanoma
SF-539 CNS = test system: SF-539 CNS
SK-MEL-5 melanoma = test system: SK-MEL-5 melanoma
RPMI-8226 leukemia = test system: RPMI-8226 leukemia
OVCAR-4 ovarian = test system: OVCAR-4 ovarian
NCI-H226 lung = test system: NCI-H226 lung
NCI-H460 NSCLC = test system: NCI-H460 NSCLC
CCRF-CEM leukemia = test system: CCRF-CEM leukemia
HOP-62 NSCLC = test system: HOP-62 NSCLC
ACHN renal = test system: ACHN renal
HOP-92 NSCLC = test system: HOP-92 NSCLC
LOX IMVI melanoma = test system: LOX IMVI melanoma
SF-268 CNS = test system: SF-268 CNS
OVCAR-8 ovarian = test system: OVCAR-8 ovarian
HT29 colon = test system: HT29 colon
SK-MEL-28 melanoma = test system: SK-MEL-28 melanoma
NCI-H322M lung = test system: NCI-H322M lung
RXF 393 renal = test system: RXF 393 renal
SK-OV-3 ovarian = test system: SK-OV-3 ovarian
A498 renal = test system: A498 renal
SN12C renal = test system: SN12C renal
IGROV1 ovarian = test system: IGROV1 ovarian
MDA-MB-231 breast = test system: MDA-MB-231 breast
A549 NSCLC = test system: A549 NSCLC
OVCAR-5 ovarian = test system: OVCAR-5 ovarian
MCF7 breast = test system: MCF7 breast

## COc1cc(-c2cnn(C)c2)ccc1Nc1ncc2ccnc(N[C@@H](C)C(C)(C)C)c2n1
TK-10 renal
  GI50: 23.2 µM
  TGI: > 100 µM
BT-549 breast
  GI50: 53.6 µM
  TGI: > 100 µM
786-0 renal
  GI50: 0.474 µM
  TGI: > 100 µM
HCT-116 colon
  GI50: 0.0447 µM
  TGI: > 100 µM
NCI-H23 lung
  GI50: 2.41 µM
  TGI: > 100 µM
UACC-257 melanoma
  GI50: > 100 µM
  TGI: > 100 µM
SNB-75 CNS
  GI50: 1.31 µM
  TGI: > 100 µM
DU-145 prostate
  GI50: 0.376 µM
  TGI: > 100 µM
MDA-MB-435 melanoma
  GI50: > 100 µM
  TGI: > 100 µM
HS 578T breast
  GI50: 1.7 µM
  TGI: 45 µM
T-47D breast
  GI50: > 100 µM
  TGI: > 100 µM
NCI/ADR-RES ovarian
  GI50: 0.442 µM
  TGI: > 100 µM
EKVX NSCLC
  GI50: > 100 µM
  TGI: > 100 µM
COLO 205 colon
  GI50: 0.0809 µM
  TGI: > 100 µM
SR leukemia
  TGI: 0.0523 µM
KM12 colon
  GI50: 0.0699 µM
  TGI: > 100 µM
MDA-MB-468 breast
  GI50: 0.486 µM
  TGI: > 100 µM
MOLT-4 leukemia
  GI50: 0.026 µM
  TGI: 0.0647 µM
SW-620 colon
  GI50: 0.112 µM
  TGI: > 100 µM
M14 melanoma
  GI50: 10.9 µM
  TGI: > 100 µM
UACC-62 melanoma
  GI50: 7.46 µM
  TGI: 88.1 µM
K-562 leukemia
  GI50: 0.878 µM
  TGI: > 100 µM
NCI-H522 lung
  GI50: 0.577 µM
  TGI: > 100 µM
CAKI-1 renal
  GI50: > 100 µM
  TGI: > 100 µM
SF-295 CNS
  GI50: 3.54 µM
  TGI: > 100 µM
UO-31 renal
  GI50: 14.1 µM
  TGI: > 100 µM
U251 glioblastoma
  GI50: 2.09 µM
  TGI: > 100 µM
OVCAR-3 ovarian
  GI50: > 100 µM
  TGI: > 100 µM
SNB-19 CNS
  GI50: 60.3 µM
  TGI: > 100 µM
PC-3 prostate
  GI50: > 100 µM
  TGI: > 100 µM
HL-60(TB) leukemia
  GI50: 0.11 µM
  TGI: 0.318 µM
HCT-15 colon
  GI50: 0.05 µM
  TGI: > 100 µM
MALME-3M melanoma
  GI50: > 100 µM
  TGI: > 100 µM
SF-539 CNS
  GI50: 0.476 µM
  TGI: > 100 µM
SK-MEL-5 melanoma
  GI50: > 100 µM
  TGI: > 100 µM
RPMI-8226 leukemia
  GI50: 0.302 µM
  TGI: > 100 µM
OVCAR-4 ovarian
  GI50: > 100 µM
  TGI: > 100 µM
NCI-H226 lung
  GI50: > 100 µM
  TGI: > 100 µM
NCI-H460 NSCLC
  GI50: 0.0673 µM
  TGI: > 100 µM
CCRF-CEM leukemia
  GI50: 0.0835 µM
  TGI: 0.271 µM
HOP-62 NSCLC
  GI50: 0.498 µM
  TGI: > 100 µM
ACHN renal
  GI50: 3.26 µM
  TGI: > 100 µM
HOP-92 NSCLC
  GI50: 27.5 µM
  TGI: > 100 µM
LOX IMVI melanoma
  GI50: 0.0893 µM
  TGI: > 100 µM
SF-268 CNS
  GI50: 2.08 µM
  TGI: > 100 µM
OVCAR-8 ovarian
  GI50: 0.326 µM
  TGI: > 100 µM
HT29 colon
  GI50: 0.632 µM
  TGI: > 100 µM
SK-MEL-28 melanoma
  GI50: > 100 µM
  TGI: > 100 µM
NCI-H322M lung
  GI50: > 100 µM
  TGI: > 100 µM
RXF 393 renal
  GI50: 0.29 µM
  TGI: 13 µM
SK-OV-3 ovarian
  GI50: > 100 µM
  TGI: > 100 µM
A498 renal
  GI50: 0.505 µM
  TGI: > 100 µM
SN12C renal
  GI50: > 100 µM
  TGI: > 100 µM
IGROV1 ovarian
  GI50: > 100 µM
  TGI: > 100 µM
MDA-MB-231 breast
  GI50: 3 µM
  TGI: > 100 µM
A549 NSCLC
  GI50: 0.115 µM
  TGI: > 100 µM

## C=CC(=O)N1CCCC(n2nc(-c3ccc(Oc4ccccc4)cc3)c3c(N)ncnc32)C1 (centres undefined)
TK-10 renal
  GI50: 0.479 µM
  TGI: 12.1 µM
BT-549 breast
  GI50: 3.59 µM
  TGI: 13.3 µM
786-0 renal
  GI50: 3.78 µM
  TGI: 17.4 µM
HCT-116 colon
  GI50: 15.3 µM
  TGI: 28.8 µM
NCI-H23 lung
  GI50: 16.3 µM
  TGI: 29.9 µM
UACC-257 melanoma
  GI50: 10.6 µM
  TGI: 22.5 µM
SNB-75 CNS
  GI50: 5.51 µM
  TGI: 14 µM
DU-145 prostate
  GI50: 4.16 µM
  TGI: 19.2 µM
MDA-MB-435 melanoma
  GI50: 17.2 µM
  TGI: 31.1 µM
HS 578T breast
  GI50: 6.88 µM
  TGI: 19.5 µM
T-47D breast
  GI50: 0.0148 µM
  TGI: 17.7 µM
NCI/ADR-RES ovarian
  GI50: 11.3 µM
  TGI: 23.5 µM
EKVX NSCLC
  GI50: 0.316 µM
  TGI: 16.7 µM
COLO 205 colon
  GI50: 18.9 µM
  TGI: 33 µM
SR leukemia
  GI50: 5.35 µM
  TGI: 18.4 µM
KM12 colon
  GI50: 14.5 µM
  TGI: 27.7 µM
MDA-MB-468 breast
  GI50: 0.0226 µM
  TGI: 0.239 µM
MOLT-4 leukemia
  GI50: 1.32 µM
  TGI: 5.02 µM
SW-620 colon
  GI50: 18.4 µM
  TGI: 32.5 µM
M14 melanoma
  GI50: 11.1 µM
  TGI: 23.2 µM
UACC-62 melanoma
  GI50: 5.71 µM
  TGI: 18.7 µM
NCI-H522 lung
  GI50: 0.0178 µM
  TGI: 0.0859 µM
CAKI-1 renal
  GI50: 6.76 µM
  TGI: 19.6 µM
SF-295 CNS
  GI50: 14.7 µM
  TGI: 27.9 µM
UO-31 renal
  GI50: 6.11 µM
  TGI: 19.9 µM
U251 glioblastoma
  GI50: 14 µM
  TGI: 27.1 µM
OVCAR-3 ovarian
  GI50: 2.05 µM
  TGI: 15.5 µM
SNB-19 CNS
  GI50: 15 µM
  TGI: 28.4 µM
PC-3 prostate
  GI50: 14.8 µM
  TGI: 28.1 µM
HL-60(TB) leukemia
  GI50: 15.9 µM
  TGI: 29.4 µM
HCT-15 colon
  GI50: 12.6 µM
  TGI: 25.3 µM
MALME-3M melanoma
  GI50: 13.5 µM
  TGI: 26.4 µM
SF-539 CNS
  GI50: 11.3 µM
  TGI: 23.4 µM
SK-MEL-5 melanoma
  GI50: 10.9 µM
  TGI: 23 µM
RPMI-8226 leukemia
  GI50: 10.5 µM
  TGI: 22.4 µM
OVCAR-5 ovarian
  GI50: 18.7 µM
  TGI: 32.8 µM
OVCAR-4 ovarian
  GI50: 11.2 µM
  TGI: 23.3 µM
NCI-H226 lung
  GI50: 6.21 µM
  TGI: 19.3 µM
NCI-H460 NSCLC
  GI50: 16.5 µM
  TGI: 30.1 µM
HOP-62 NSCLC
  GI50: 15.2 µM
  TGI: 28.6 µM
ACHN renal
  GI50: 0.655 µM
  TGI: 17.3 µM
HOP-92 NSCLC
  GI50: 13.6 µM
  TGI: 26.5 µM
LOX IMVI melanoma
  GI50: 4.43 µM
  TGI: 19.3 µM
SF-268 CNS
  GI50: 6.51 µM
  TGI: 20 µM
OVCAR-8 ovarian
  GI50: 12.1 µM
  TGI: 24.6 µM
SK-MEL-28 melanoma
  GI50: 17.3 µM
  TGI: 31.2 µM
MCF7 breast
  GI50: 10.3 µM
  TGI: 22.1 µM
RXF 393 renal
  GI50: 1.18 µM
  TGI: 6.31 µM
SK-OV-3 ovarian
  GI50: 2.87 µM
  TGI: 20.5 µM
A498 renal
  GI50: 11.5 µM
  TGI: 23.7 µM
SN12C renal
  GI50: 2.71 µM
  TGI: 16.5 µM
IGROV1 ovarian
  GI50: 0.114 µM
  TGI: 5.9 µM
MDA-MB-231 breast
  GI50: 16.2 µM
  TGI: 29.8 µM
A549 NSCLC
  GI50: 12.1 µM
  TGI: 24.5 µM
